Measurements taken from patent publication US20260062422A1 (Halda Therapeutics OpCo, Inc., priority 2022, published 2026).

Key:
[1] = tested on: T47D cells; assay: Cellular growth inhibition assay for T47D cells, CellTiter-Glo; assay type: cell-based, human; details: 72 hours treatment, CellTiter-Glo 2.0 cell viability
Procedure, shortened: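 Growth inhibition as GI50, fitted with four parameters to CellTiter-Glo luminescence after 72 h of compound exposure (0.5% DMSO). Cells were T47D, grown in insulin-supplemented (0.2 units/mL) DMEM with 10% FBS and treated one day post-seeding.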

[2] = tested on: T-Rex 293 cell line SC3 cells lacking increased expression of androgen receptor protein; assay: Cellular growth inhibition, T-Rex 293 SC3 cells without doxycycline, CellTiter-Glo; assay type: cell-based; details: T-Rex 293 SC3 cells not exposed to doxycycline; 72 hours; CellTiter-Glo 2.0
Procedure, shortened: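 SC3 is a T-Rex 293 clone stably transfected with wild-type androgen receptor in pcDNA4/TO, inducible by 10 ng/mL doxycycline. Cells were grown in phenol red-free DMEM with 10% charcoal-dextran FBS, with or without doxycycline, dosed 24 h after seeding (0.5% DMSO) for 72 h. Viability was read by CellTiter-Glo 2.0 luminescence and GI50 obtained from four-parameter fits.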

GI50 [1]	GI50 ([1]; Homo sapiens, T47D, 72 h)	Compound	GI50 [2]
< 500 nM		Cc1sc2c(c1C)C(c1ccc(CC3CC4(CCN(c5ccc(C(=O)N[C@H]6C(C)(C)[C@H](Oc7ccc(C#N)c(Cl)c7)C6(C)C)cn5)CC4)C3)cc1)=N[C@@H](Cc1ncco1)c1nnc(C)n1-2 [Compound I-143]	< 500 nM
	< 500 nM	Cc1sc2c(c1C)C(c1ccc(N3CC(N4CCN(c5ncc(C(=O)N[C@H]6C(C)(C)[C@H](Oc7ccc(C#N)c(Cl)c7)C6(C)C)cn5)CC4)C3)cc1)=NC(Cc1ncco1)c1nnc(C)n1-2 (stereo partly shown) [Compound I-208]	< 500 nM
